Measured values reported in patent US9867832B2, “Pharmaceutical composition for inhibiting immune response through inducing differentiation into regulator T cells and promoting proliferation of regulator T cells” (LG CHEM, LTD., priority 2013, dated 2018).

Key:
[1] = test system: reactive oxygen species (ROS); test: Measurement of reactive oxygen species (ROS) in spleen cells of GVHD mice; type: in vivo; settings: GVHD mouse spleen cells; 7th and 14th day; dose- and time-dependent; vs control group
Protocol: Animals of each group were sacrificed, and their spleens were isolated. After single-cell isolation, the obtained cells were washed with phosphate-buffered saline (PBS) twice. The reaction with 3 μM carboxy-H2DCFDA reagent was carried out at 37° C. for 10 minutes. After washing with PBS, the analysis was carried out with a flow cytometer at 540 nm.
Accordingly, the present inventors observed immune response by oxidative stress via GVHD mouse model.

[2] = test system: CD4+ T cells isolated from mouse spleen cells; test: In vitro differentiation of CD4+ T cells into regulatory T cells (aCD3, aCD28, TGF-beta); type: cell-based
Protocol: Experimentation for investigating the effect of the compound of the present invention on the differentiation of lymphocyte Th cells was carried out. 5×10^5 CD4+ T cells isolated from mouse spleen cells were dispensed into a 24-well plate coated with 1 μg/ml of anti-CD3 (aCD3), and then treated with 1 μg/ml of […] (aCD28) and 5 ng/ml of TGF-beta to induce the differentiation into regulatory T cells for 3 days. Before the differentiation into regulatory T cells, the compound (tetrahydropyran-4-yl)-[2-phenyl-5-(1,1-dioxo-thiomorpholin-4-yl)methyl-1H-indol-7-yl]amine (hereinafter referred to as “Compound A”) (LG Life Sciences Ltd., Daejeon, Korea) of the present invention was treated with the concentration of 40 μM and 80 μM. For flow cytometry, anti-mouse CD4 PerCP, CD25 APC and FoxP3 PE fluorescence-labeled antibodies were added thereto and reacted at 4° C. for 30 minutes. After washing with PBS, the measurement was carried out with a flow cytometer (FACSCalibur™)
In the course that 5×10^5 CD4^+ T cells isolated from mouse spleen cells were dispensed into a 24-well plate coated with 1 μg/ml of anti-CD3 (aCD3), and then treated with 1 μg/ml of […] (aCD28) and 5 ng/ml of TGF-beta to induce the differentiation into regulatory T cells for 3 days, the groups were divided into (1) 40 μM or 80 μM of Compound A single-treated group, (2) 0.1 μM of retinoic acid (RA) single-treated group, (3) 1 μM of retinal treated group, (4) 0.1 μM of RA and 40 μM or 80 μM of Compound A treated group, and (5) 1 μM of retinal and 40 μM or 80 μM of Compound A treated group, and the effect on the differentiation into regulatory T cells of each group was then compared.

HMGB1 = test: Real-time PCR of HMGB1 expression in spleen cells of GVHD mice; type: in vivo; settings: GVHD mouse spleen cells, 7th and 14th day, time-dependent, vs control group
Protocol: Total RNA was extracted from the cells by the use of TRIzol reagent. 1 μg of RNA was reacted with AMV reverse transcriptase and random hexamer at 45° C. for 1 hour to synthesize cDNA. Real-time PCR was carried out by the use of a mixture in which 1 μg of cDNA as a template, primer S, primer AS and distilled water were mixed, and SYBR Green. The PCR was carried out by the use of I-IMGB 1 (5′-GATGGGCAAAGGAGATCCTAAG-3′ and 5′-TCACTTTTTTGTCTCCCCTTTGGG-3′) with the condition of 35 cycles of at 95° C. for 15 seconds, at 60° C. for 10 seconds and at 72° C. for 30 seconds. Fluorescent data were measured by the use of Rad CFX96 Real-Time System (Bio-Rad Laboratories).
It has been well known that the release of HMGB1 has a possibility of the function for regulating inflammation and immunity. Therefore, in this study the animals of the test group in which GVHD mouse model was treated with the compound of the present invention and the control model was sacrificed, RNA was extracted from spleen cells, and then cDNA was synthesized and a comparative study on the expression of HMGB1 was carried out by real-time PCR.

GVHD mouse model = test: Allogeneic immune response (GVHD) mouse model: survival, body weight, GVHD clinical score, large intestine histology; type: in vivo
Protocol: 6-8 week-old C57BL/6 (H-2kb) mouse and BALB/c (H-2kd) mouse which have different MHC class from each other were purchased from OrientBio Co., Ltd. After passing the regulation of the management committee of the Department of Laboratory Animal, The Catholic University of Korea, the mice were used under its care. A recipient mouse BALB/c (H-2kd) was irradiated with systemic radiation at 800 cGy. Within 24 hours, bone marrow 5×10^6 cells and spleen 5×10^6 cells isolated from a donor mouse C57BL/6 […] were transplanted into the allogeneic recipient mouse intravenously to induce a graft-versus-host rejection reaction model. The bone marrow-transplanted mouse was observed and evaluation was made of the following: weight, pose, activity, hair condition and skin density with evaluation criteria on the total ten-point scale, two points per each item (Table 1).
4 μm of serial sections were obtained from the paraffin-embedded tissue, treated with xylene three times to remove paraffin, and then hydrated stepwise in 95%, 90% and 70% ethanol. After removing endogenous peroxidase in 0.5% hydrogen peroxide, the specimen was treated with normal goat serum for 30 minutes and then reacted with primary antibody which was diluted with 3% bovine serum albumin (BSA) in PBS according to the manufacturer's instruction for 1 hour. After primary antibody reaction to the expressed proteins directed to genes showing the difference of expression in the above study, the specimen was washed with Tris-buffered saline (TBS) three times, reacted with 5 μg/ml biotinylated anti-mouse/anti-rabbit IgG diluted in 3% BSA for 30 minutes and washed with TBS three times. The specimen was kept in 3 μg/ml horseradish peroxidase streptoavidin for 30 minutes, color development was carried out by the use of DAB and hydrogen peroxide, and counter staining was carried out with Meyer's hematoxylin or 1% methyl green. […]

[3] = test system: CD4+CD25+Foxp3+ regulatory T cells; test: Increase of regulatory T cells in in vivo GVHD mouse model (Example 10); settings: intravenous, four times a week for two weeks, spleen flow cytometry
Protocol: 6-8 week-old C57BL/6 (H-2kb) mouse and BALB/c (H-2kd) mouse which have different MHC class from each other were used. A recipient mouse BALB/c (H-2kd) was irradiated with systemic radiation at 8 Gy. Within 24 hours, bone marrow 5×10^6 cells and spleen 5×10^6 cells isolated from a donor mouse C57BL/6 […] were transplanted into the recipient mouse intravenously to induce graft-versus-host rejection reaction model (GVHD model). Compound A was intravenously injected into the GVHD model four times a week for two weeks. Mice were sacrificed, single-cell isolation was carried out, and the function of immune regulation in the spleen was investigated via flow cytometry. As a result, it was confirmed that in the group in which Compound A was administered CD4^+CD25^+Foxp3^+ regulatory T cells were increased.

[4] = test system: CD4+CD25+Foxp3+ regulatory T cells; test: Flow cytometry of spleen cells of GVHD mice (regulatory T cells, CD4+IL-4, CD4+IFN-γ); type: in vivo; settings: GVHD mouse spleen
Protocol: Mice were divided into a GVHD group in which (tetrahydropyran-4-yl)-[2-phenyl-5-(1,1-dioxo-thiomorpholin-4-yl)methyl-1H-indol-7-yl]amine (LG Life Sciences Ltd., Daejeon, Korea, hereinafter referred to as “Compound A”) was treated as a test group and a GVHD group in which Compound A was not treated as a control group. The spleens of each group were isolated and single-cell isolation was then carried out. The expression of CD4+CD25+Foxp3+, which is the phenotype of regulatory T cell, and CD4+IFN-γ cells and CD4+IL-4 cells were analyzed by the use of fluorescent monoclonal antibodies and a flow cytometer.
The present inventors found out that in GVHD mouse model, immune transplant rejection was decreased, the production of ROS and HMGB1, and cellular necrosis in tissues were suppressed by the compound of the present invention, so that they intended to observe the possibility of regulating immune response in immune disease animal model. Accordingly, mice of the test group in which the compound of the present invention was treated and the control group were sacrificed, their spleens were isolated, single-cell isolation was carried out, and the function of immune regulation was searched via flow cytometry. As a result, in the group in which the compound of the present invention was treated CD4+CD25+Foxp3+ immune regulatory cells (regulatory T cells) were increased 6 times or more, as compared with the control group. […] In GVHD model, after irradiation of high-dose radiation the transplanted T cells of the donor are activated and proliferated by antigen-presenting cells of the host to secrete IFN-γ which is known as a representative GVHD causing cytokine. […] Therefore, it can be known that the compound of the present invention can suppress immune response by suppressing the activation of the transplanted T cells.

[5] = test system: CD4+ T cells isolated from the spleen cells of C57BL/6; test: Differentiation into regulatory T cells in allogeneic immune cells in vitro; type: cell-based, mouse; settings: C57BL/6 CD4+ T cells with irradiated BALBc APCs; 5 days; various concentrations
Protocol: 1×10^6 CD4^+ T cells isolated from the spleen cells of C57BL/6 and BALBc antigen-presenting cells (APCs) irradiated at 20 Gy were added to a 48-well plate and incubated at 37° C. for 5 days. The incubation was carried out under the condition that allogeneic immune response by antigen-presenting cells is induced to the spleen cells, and the treatment with Compound A at various concentrations before incubation was carried out for comparative analysis. The cells were harvested after 5-day incubation, and for flow cytometry anti-mouse CD4 PerCP, CD25 APC and FoxP3 PE fluorescence-labeled antibodies were added thereto and reacted at 4° C. for 30 minutes. After washing with PBS, the measurement was carried out with a flow cytometer (FACSCalibur™).

SMILES: O=S1(=O)CCN(Cc2cc(NC3CCOCC3)c3[nH]c(-c4ccccc4)cc3c2)CC1 [Compound A, (tetrahydropyran-4-yl)-[2-phenyl-5-(1,1-dioxo-thiomorpholin-4-yl)methyl-1H-indol-7-yl]amine]
- generation ratio of reactive oxygen species in cells [1]: significantly suppressed
- differentiation into regulatory T cells ([2]; CD4+ T cells with aCD3, aCD28, TGF-beta, 40 μM and 80 μM): increased in a Compound A concentration-dependent manner
- expression of Foxp3+ ([2]; CD4+ T cells with aCD3, aCD28, TGF-beta, 40 μM and 80 μM, 3 days, vs control without Compound A): nearly doubled
- expression of Foxp3+ (alone or in combination) ([2]; aCD3, aCD28, TGF-beta, Compound A 40 or 80 μM, RA 0.1 μM, retinal 1 μM): increased to a similar extent to the case of treating retinal or RA
- release (expression) of HMGB1 (HMGB1): significantly suppressed
- survival rate (GVHD mouse model; 0.3 or 1 mg/kg (FIG. 2), compared with non-treated group): considerably increased
- body weight (GVHD mouse model; FIGS. 1 and 2): significant results
- graft-versus-host reaction (GVHD clinical score) (GVHD mouse model; FIGS. 1 and 2): significant results
- CD4+CD25+Foxp3+ regulatory T cells [3]: increased
- increase of CD4+CD25+Foxp3+ immune regulatory cells (regulatory T cells) ([4]; compared with control group): ≥ 6 times
- CD4+IFN-γ ([4]; vs control group): decreased by more than half
- CD4+IL-4 cells ([4]; vs control group): increased
- regulatory T cells [5]: increased according to the concentration of Compound A
